Experimental data as given in PubChem BioAssay (NCI).
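In this assay, cells in 96-well plates receive the compound at five concentrations for 48 hours. Endpoints are linearly interpolated between the surrounding concentrations. TGI is the concentration that stops growth completely.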

Legend:
Test in all cases: NCI-60 cell line screen, 48 h
SF-539 CNS = tested on: SF-539 CNS
DMS 114 small cell lung = tested on: DMS 114 small cell lung
SNB-78 CNS = tested on: SNB-78 CNS
KM20L2 colon = tested on: KM20L2 colon
DMS 273 small cell lung = tested on: DMS 273 small cell lung
DLD-1 colon = tested on: DLD-1 colon
A498 renal = tested on: A498 renal
LXFL 529 NSCLC = tested on: LXFL 529 NSCLC
M19-MEL melanoma = tested on: M19-MEL melanoma
HOP-18 NSCLC = tested on: HOP-18 NSCLC
TK-10 renal = tested on: TK-10 renal
COLO 205 colon = tested on: COLO 205 colon
IGROV1 ovarian = tested on: IGROV1 ovarian
RXF-631 renal = tested on: RXF-631 renal
HL-60(TB) leukemia = tested on: HL-60(TB) leukemia
XF 498 CNS = tested on: XF 498 CNS

| Compound | TGI (SF-539 CNS) [µM] | TGI (DMS 114 small cell lung) [µM] | TGI (SNB-78 CNS) [µM] | TGI (KM20L2 colon) [µM] | TGI (DMS 273 small cell lung) [µM] | TGI (DLD-1 colon) [µM] | TGI (A498 renal) [µM] | TGI (LXFL 529 NSCLC) [µM] | TGI (M19-MEL melanoma) [µM] | TGI (HOP-18 NSCLC) [µM] | TGI (TK-10 renal) [µM] | TGI (COLO 205 colon) [µM] | TGI (IGROV1 ovarian) [µM] | TGI (RXF-631 renal) [µM] | TGI (HL-60(TB) leukemia) [µM] | TGI (XF 498 CNS) [µM] |
| --- | --- | --- | --- | --- | --- | --- | --- | --- | --- | --- | --- | --- | --- | --- | --- | --- |
| c1ccc2c(C3NCCc4[nH]cnc43)cccc2c1 (stereo not drawn) | > 100 | > 100 | > 100 | > 100 | > 100 | > 100 | > 100 | > 100 | > 100 | > 100 | > 100 | > 100 | > 100 |  |  |  |
| CC(=O)C1=CSC2[C@H](NC(=O)Cc3ccccc3)C(=O)N2C1C(=O)OC(c1ccccc1)c1ccccc1 (stereo partly drawn) | > 100 | > 100 | > 100 |  | > 100 | > 100 | > 100 | > 100 | > 100 |  | > 100 | > 100 | > 100 | > 100 | > 100 | > 100 |
| CCOC(=O)C1=C(O)C(=O)c2ccsc2C1=O | > 100 | > 100 | > 100 | > 100 | > 100 | > 100 | > 100 |  | 40.5 | > 100 | > 100 | > 100 | > 100 |  | > 100 |  |
| C=CCc1cc(OC)c2c(c1)C(O)CC(c1ccccc1)O2 (stereo not drawn) | > 100 | > 100 | > 100 | > 100 | > 100 | > 100 |  | > 100 | > 100 | > 100 | > 100 | > 100 | > 100 | > 100 | > 100 |  |
| Cc1cc(=O)[nH]c(NN2C(Cl)C(=O)C2c2ccc(Cl)cc2)n1 (stereo not drawn) | 33.3 | 30 | 39 | 44.5 | 25.9 |  | 53.6 | 19.2 | 35.7 | 23.2 | 48.6 | 36.2 | 15.1 |  | 12.7 |  |
| Cn1c(/C=C(\O)c2ccc(Cl)cc2)nc2ccccc21 | > 100 |  | > 100 | 95.6 |  | > 100 |  | > 100 | > 100 |  |  | > 100 | > 100 | > 100 | 77.1 | > 100 |
| CC12NN=NC1C(=O)NC2=O (stereo not drawn) | > 100 | > 100 | > 100 | > 100 | > 100 | > 100 | > 100 | > 100 | > 100 |  | > 100 | > 100 | > 100 |  | > 100 |  |
| Cc1cc(N(CCC#N)CCC#N)ccc1/C=C/C(=O)Nc1cccc(Cl)c1 | > 100 | > 100 |  | > 100 | > 100 | > 100 | > 100 | > 100 | > 100 |  | > 100 | > 100 | > 100 | > 100 | > 100 | > 100 |
| O=C1OC(CCCl)(c2ccccc2)CC1CN1CCOCC1 (stereo not drawn) | 70.1 | 42.9 | 81.5 | > 100 |  | 34 | > 100 | 33.7 | 45.6 |  | 30.5 | 35.4 | 50.1 |  | 26.5 | 29.3 |
| CCOC(=O)c1nc2ccc([N+](=O)[O-])cc2c2c1CCO2 | > 100 | > 100 | > 100 | > 100 | > 100 | > 100 | > 100 | > 100 | > 100 | > 100 | > 100 | > 100 | > 100 | > 100 | > 100 | > 100 |
| CCOC1(COP(=O)(OCc2ccccc2)OCc2ccccc2)COC(COP(=O)(OCc2ccccc2)OCc2ccccc2)(OCC)CO1 (stereo not drawn) | > 100 |  | > 100 | > 100 | > 100 | > 100 |  | > 100 | > 100 | > 100 | > 100 | > 100 | > 100 | > 100 | > 100 | > 100 |
| CCOc1ccc2nc(NC(=O)c3c/c(=N\NC(=O)C[N+](C)(C)C)c4ccc(O)cc4o3)sc2c1 | 11 | 4.51 | 15.5 | 10 | 28.7 | 13.4 | 28 | 4.45 | 0.501 | 5.05 | 36.5 | 20.7 | 8.64 | 26.8 | 3.83 | 6.14 |
| CSCC1CC(c2ccc(Cl)cc2)=NO1 (stereo not drawn) | > 100 | > 100 | > 100 | > 100 | > 100 | > 100 | > 100 | > 100 | > 100 | > 100 | > 100 | > 100 | > 100 | > 100 | > 100 |  |
| COc1ccc(NC(=O)C/C(C)=N\N=C(N)N)c([N+](=O)[O-])c1 | > 100 | > 100 | > 100 | > 100 | > 100 | > 100 | > 100 | > 100 | > 100 | > 100 | > 100 | > 100 | > 100 |  | > 100 | > 100 |
| C#CCOCC12C=CC(O1)C1C(=O)N(C)C(=O)C12 (stereo not drawn) | > 100 |  |  |  |  |  | > 100 |  |  |  | > 100 | > 100 | > 100 |  | > 100 |  |
| CCC1C(c2cc(OC)c(OC)c(OC)c2)c2cc3c(cc2OC1N1CCCC1)OCO3 (stereo not drawn) | 5.53 |  |  |  |  |  | 14 |  |  |  | 40.3 | 12.1 | 17.8 |  | > 23.3 |  |
| COc1ccc(NC(=O)/C(=N\NC(=O)C[n+]2ccccc2)c2c(O)c3ccc(O)cc3oc2=O)c([N+](=O)[O-])c1 | > 100 |  |  |  |  |  | > 100 |  |  |  | > 100 | > 100 | > 100 |  | > 100 |  |
| O=c1cc(-c2ccccc2)[nH]c2cc(O)ccc12 | > 100 | 34 | > 100 | 40.4 | 87.8 | 35.7 | > 100 | > 100 | 35.3 | > 100 | > 100 | 32.3 | 65.6 | > 100 | 40.7 | 50.4 |
